The text below walks through data of patent publication US10815244B2, “Isoidide derivatives and methods of making and using same” (Rutgers, the State University of New Jersey, priority 2015, dated 2020).

Structures are written as SMILES.

The subject of assay [1] is TNF-α (LPS-stimulated PBMCs). Put plainly: TNF-α expression in LPS-stimulated PBMCs in the presence of MIF inhibitors (ELISA). The following applies: Homo sapiens, PBMC, LPS 10 ng/ml and LPS+MIF, ELISA of supernatant. The format is cell-based. The protocol:
(§1) Example QQ: Macrophage Migration Inhibitory Factor (MIF) as a Drug Target Assay Conditions
(§2) a) PBMC Isolation: • Heparinized blood (10 ml) was diluted with equal volume of phosphate buffer saline (PBS). To the Ficoll solution (5 ml) add 5 ml of blood:PBS mixture and centrifuge at 1600 rpm for 30 minutes. Take the buffy coat and wash with PBS at 1200 rpm for 5 minutes (twice). After two wash with PBS, the PBMCs were washed with RPMI medium. The PBMC were counted and plated in 96 well plates (1×10^6 cells/well).
(§3) b) Expression of TNF-α and […] in PBMCs in the Presence of MIF Inhibitors: • After overnight incubation, the cells were treated with different concentration of MIF inhibitors. After 6 hr, cells were treated with LPS (10 ng/ml) and LPS+MIF combination (10 ng/ml) and further incubated for overnight. PBMCs treated with 10 ng/ml of LPS and MIF in the presence of different concentrations of test compounds. After the incubation period, the supernatant were collected and human TNF-α and IL-1β were determined using the ELISA kits (R&D Systems).

For assay [2], the system named is IL-1β (LPS-stimulated PBMCs). The experiment in a line: IL-1β expression in LPS-stimulated PBMCs in the presence of MIF inhibitors (ELISA). It counts as cell-based. Conditions: Homo sapiens, PBMC, LPS 10 ng/ml and LPS+MIF, ELISA of supernatant. The protocol: as §1, §2, §3
A further assay addresses EGFR kinase (Homo sapiens (Human), UniProt P00533). Put plainly: EGFR kinase activity, luminescent ATP/ADP detection assay. It counts as biochemical. Conditions: purified EGFR kinase, 10 min incubation, luminescence ADP detection. The protocol:
Example RR: EGFR as a Drug Target Assay Conditions
The IC50s of the compounds on EGFR activity were determined using the Luminescent ATP/ADP detection assay system. Briefly, the assay method measures ADP formed from EGFR kinase activity using luminescence derived from ATP-Luciferase detection system. Purified EGFR kinase was incubated with different concentrations of test compound in the kinase reaction buffer for 10 min. The reaction was stopped by depleting the unused ATP in the kinase reaction buffer using the depletion buffer for 40 min. The levels of ADP generated during the kinase reaction was detected by measuring the luminescence using the Luciferase system.

EGFR kinase, sequence (P00533 25-1210): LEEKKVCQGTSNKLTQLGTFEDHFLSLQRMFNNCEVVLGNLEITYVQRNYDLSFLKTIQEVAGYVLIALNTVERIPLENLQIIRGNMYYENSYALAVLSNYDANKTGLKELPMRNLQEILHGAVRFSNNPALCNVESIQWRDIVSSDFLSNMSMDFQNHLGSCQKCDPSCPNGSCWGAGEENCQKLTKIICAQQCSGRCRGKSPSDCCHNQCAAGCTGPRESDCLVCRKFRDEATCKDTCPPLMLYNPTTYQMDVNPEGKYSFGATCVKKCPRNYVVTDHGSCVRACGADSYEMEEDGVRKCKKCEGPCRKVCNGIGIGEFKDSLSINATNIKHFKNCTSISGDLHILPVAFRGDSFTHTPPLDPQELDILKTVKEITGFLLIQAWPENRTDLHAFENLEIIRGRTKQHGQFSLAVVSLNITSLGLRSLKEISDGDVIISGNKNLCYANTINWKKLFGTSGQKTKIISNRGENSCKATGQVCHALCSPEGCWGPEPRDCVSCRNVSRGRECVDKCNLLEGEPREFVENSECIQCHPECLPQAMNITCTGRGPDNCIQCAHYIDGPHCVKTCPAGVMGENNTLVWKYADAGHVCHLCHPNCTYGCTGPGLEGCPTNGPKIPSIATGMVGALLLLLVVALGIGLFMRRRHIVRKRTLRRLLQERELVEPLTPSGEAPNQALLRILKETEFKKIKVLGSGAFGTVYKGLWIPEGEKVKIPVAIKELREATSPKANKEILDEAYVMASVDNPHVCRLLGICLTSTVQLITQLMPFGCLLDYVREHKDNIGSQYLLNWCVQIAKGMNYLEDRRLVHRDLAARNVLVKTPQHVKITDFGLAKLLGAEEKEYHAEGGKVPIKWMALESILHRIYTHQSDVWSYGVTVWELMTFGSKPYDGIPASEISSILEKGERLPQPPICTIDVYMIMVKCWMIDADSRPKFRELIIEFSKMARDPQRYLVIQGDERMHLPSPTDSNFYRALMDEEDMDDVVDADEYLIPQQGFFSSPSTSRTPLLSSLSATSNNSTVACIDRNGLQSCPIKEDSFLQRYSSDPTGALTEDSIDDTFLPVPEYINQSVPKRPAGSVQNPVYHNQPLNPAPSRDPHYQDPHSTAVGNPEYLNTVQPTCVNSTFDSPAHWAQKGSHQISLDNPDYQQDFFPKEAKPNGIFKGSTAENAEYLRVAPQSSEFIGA

A word on the IC50: it is the concentration that inhibits the measured activity by half. Take `CCOC(=O)c1c(O[C@H]2CO[C@H]3[C@@H]2OC[C@@H]3O)c2ccccc2n(CC)c1=O` [Example A, ethyl 4-[[(3S,3aR,6S,6aR)-3-hydroxy-2,3,3a,5,6,6a-hexahydrofuro[3,2-b]furan-6-yl]oxy]-1-ethyl-2-oxo-1,2-dihydroquinoline-3-carboxylate]: the IC50 in assay [1] and in assay [2] was greater than 1000 nM in each case.
At EGFR kinase, `COc1cc2ncnc(Nc3ccc(O[C@H]4CO[C@H]5[C@@H]4OC[C@@H]5OCc4ccccc4)c(Cl)c3)c2cc1OC` [Example AA, N-[4-[[(3S,3aR,6S,6aR)-3-benzyloxy-2,3,3a,5,6,6a-hexahydrofuro[3,2-b]furan-6-yl]oxy]-3-chloro-phenyl]-6,7-dimethoxy-quinazolin-4-amine] gave an IC50 greater than 100 nM.
On to `CCOC(=O)c1c(O[C@H]2CO[C@H]3[C@@H]2OC[C@@H]3OC(C)=O)c2ccccc2n(CC)c1=O` [Example B, ethyl 4-[[(3S,3aR,6S,6aR)-6-acetoxy-2,3,3a,5,6,6a-hexahydrofuro[3,2-b]furan-3-yl]oxy]-1-ethyl-2-oxo-1,2-dihydroquinoline-3-carboxylate], for which the IC50 in assay [1] and in assay [2] was greater than 10000 nM each time.
The molecule `COc1cc2ncnc(Nc3ccc(O[C@H]4CO[C@H]5[C@@H]4OC[C@@H]5OC(C)=O)c(Cl)c3)c2cc1OC` [Example BB, [(3S,3aR,6S,6aR)-3-[2-chloro-4-[(6,7-dimethoxyquinazolin-4-yl)amino]phenoxy]-2,3,3a,5,6,6a-hexahydrofuro[3,2-b]furan-6-yl] acetate] showed an IC50 against EGFR kinase greater than 500 nM.
For the molecule `CCOC(=O)c1c(O[C@H]2CO[C@H]3[C@@H]2OC[C@@H]3OC(=O)CCl)c2ccccc2n(CC)c1=O` [Example C, ethyl 4-[[(3S,3aR,6S,6aR)-6-(2-chloroacetyl)oxy-2,3,3a,5,6,6a-hexahydrofuro[3,2-b]furan-3-yl]oxy]-1-ethyl-2-oxo-1,2-dihydroquinoline-3-carboxylate], the IC50 in assay [1] and in assay [2] was greater than 500 nM each time.
Take `CCOC(=O)c1c(O[C@H]2CO[C@@H]3C=CO[C@H]23)c2ccccc2n(CC)c1=O` [Example D, ethyl 4-[[(3S,3aS,6aR)-2,3,3a,6a-tetrahydrofuro[3,2-b]furan-3-yl]oxy]-1-ethyl-2-oxo-1,2-dihydroquinoline-3-carboxylate]: the IC50 in assay [1] and in assay [2] was greater than 10000 nM in each case.
Take `CCOC(=O)c1c(O[C@H]2CO[C@H]3[C@@H]2OC[C@@H]3O)c2ccccc2n(Cc2ccccc2)c1=O` [Example E, ethyl 4-[[(3S,3aR,6S,6aR)-3-hydroxy-2,3,3a,5,6,6a-hexahydrofuro[3,2-b]furan-6-yl]oxy]-1-benzyl-2-oxo-1,2-dihydroquinoline-3-carboxylate]: the IC50 in assay [1] and in assay [2] was greater than 500 nM throughout.
`CCOC(=O)c1c(O[C@H]2CO[C@H]3[C@@H]2OC[C@@H]3OC(C)=O)c2ccccc2n(Cc2ccccc2)c1=O` [Example F, ethyl 4-[[(3S,3aR,6S,6aR)-6-acetoxy-2,3,3a,5,6,6a-hexahydrofuro[3,2-b]furan-3-yl]oxy]-1-benzyl-2-oxo-1,2-dihydroquinoline-3-carboxylate]: the IC50 in assay [1] and in assay [2] was greater than 10000 nM each time.
As for `CCOC(=O)c1c(O[C@H]2CO[C@H]3[C@@H]2OC[C@@H]3OC(=O)CCl)c2ccccc2n(Cc2ccccc2)c1=O` [Example G, ethyl 4-[[(3S,3aR,6S,6aR)-6-(2-chloroacetyl)oxy-2,3,3a,5,6,6a-hexahydrofuro[3,2-b]furan-3-yl]oxy]-1-benzyl-2-oxo-1,2-dihydroquinoline-3-carboxylate], the IC50 in assay [1] and in assay [2] was greater than 100 nM each time.
For `CCOC(=O)c1c(O[C@H]2CO[C@@H]3C=CO[C@H]23)c2ccccc2n(Cc2ccccc2)c1=O` [Example H, ethyl 4-[[(3S,3aS,6aR)-2,3,3a,6a-tetrahydrofuro[3,2-b]furan-3-yl]oxy]-1-benzyl-2-oxo-1,2-dihydroquinoline-3-carboxylate], the IC50 in assay [1] and in assay [2] was greater than 10000 nM in each case.
On to `CCOC(=O)c1c(O[C@H]2CO[C@H]3[C@@H]2OC[C@@H]3O)c2ccccc2n(Cc2ccc(F)cc2)c1=O` [Example I, ethyl 4-[[(3S,3aR,6S,6aR)-3-hydroxy-2,3,3a,5,6,6a-hexahydrofuro[3,2-b]furan-6-yl]oxy]-1-[(4-fluorophenyl)methyl]-2-oxo-1,2-dihydroquinoline-3-carboxylate], for which the IC50 in assay [1] and in assay [2] was greater than 500 nM throughout.
Regarding `CCOC(=O)c1c(O[C@H]2CO[C@H]3[C@@H]2OC[C@@H]3OC(=O)CCl)c2ccccc2n(Cc2ccc(F)cc2)c1=O` [Example J, ethyl 4-[[(3S,3aR,6S,6aR)-6-(2-chloroacetyl)oxy-2,3,3a,5,6,6a-hexahydrofuro[3,2-b]furan-3-yl]oxy]-1-[(4-fluorophenyl)methyl]-2-oxo-1,2-dihydroquinoline-3-carboxylate], the IC50 in assay [1] and in assay [2] was greater than 100 nM throughout.
Turning to `N#Cc1c(O[C@H]2CO[C@H]3[C@@H]2OC[C@@H]3O)c2ccccc2n(Cc2ccccc2)c1=O` [Example K, 4-[[(3S,3aR,6S,6aR)-3-hydroxy-2,3,3a,5,6,6a-hexahydrofuro[3,2-b]furan-6-yl]oxy]-1-benzyl-2-oxo-1,2-dihydroquinoline-3-carbonitrile], the IC50 in assay [1] and in assay [2] was greater than 100 nM each time.
Take `CC(=O)O[C@H]1CO[C@H]2[C@@H]1OC[C@@H]2Oc1c(C#N)c(=O)n(Cc2ccccc2)c2ccccc12` [Example L, [(3S,3aR,6S,6aR)-3-[(1-benzyl-3-cyano-2-oxo-4-quinolyl)oxy]-2,3,3a,5,6,6a-hexahydrofuro[3,2-b]furan-6-yl] acetate]: the IC50 in assay [1] and in assay [2] was greater than 1000 nM each time.
Turning to `N#Cc1c(O[C@H]2CO[C@H]3[C@@H]2OC[C@@H]3OC(=O)CCl)c2ccccc2n(Cc2ccccc2)c1=O` [Example M, [(3S,3aR,6S,6aR)-3-[(1-benzyl-3-cyano-2-oxo-4-quinolyl)oxy]-2,3,3a,5,6,6a-hexahydrofuro[3,2-b]furan-6-yl] 2-chloroacetate], the IC50 in assay [1] and in assay [2] was greater than 500 nM each time.
Take `N#Cc1c(O[C@H]2CO[C@H]3[C@@H]2OC[C@@H]3O)c2ccccc2n(Cc2ccc(F)cc2)c1=O` [Example N, 4-[[(3S,3aR,6S,6aR)-3-hydroxy-2,3,3a,5,6,6a-hexahydrofuro[3,2-b]furan-6-yl]oxy]-1-[(4-fluorophenyl)methyl]-2-oxo-1,2-dihydroquinoline-3-carbonitrile]: the figures for the IC50 in assay [1] and in assay [2] were greater than 100 nM and greater than 10000 nM, respectively.
With `CC(=O)O[C@H]1CO[C@H]2[C@@H]1OC[C@@H]2Oc1c(C#N)c(=O)n(Cc2ccc(F)cc2)c2ccccc12` [Example O, [(3S,3aR,6S,6aR)-3-[[3-cyano-1-[(4-fluorophenyl)methyl]-2-oxo-4-quinolyl]oxy]-2,3,3a,5,6,6a-hexahydrofuro[3,2-b]furan-6-yl] acetate], the values for the IC50 in assay [1] and in assay [2] were greater than 100 nM and greater than 10000 nM, respectively.
Turning to `N#Cc1c(O[C@H]2CO[C@H]3[C@@H]2OC[C@@H]3OC(=O)c2ccccc2)c2ccccc2n(Cc2ccc(F)cc2)c1=O` [Example P, [(3S,3aR,6S,6aR)-3-[[3-cyano-1-[(4-fluorophenyl)methyl]-2-oxo-4-quinolyl]oxy]-2,3,3a,5,6,6a-hexahydrofuro[3,2-b]furan-6-yl] benzoate], the IC50 in assay [1] and in assay [2] was greater than 10000 nM in each case.
Turning to `N#Cc1c(O[C@H]2CO[C@H]3[C@@H]2OC[C@@H]3OC(=O)CCl)c2ccccc2n(Cc2ccc(F)cc2)c1=O` [Example Q, [(3S,3aR,6S,6aR)-3-[[3-cyano-1-[(4-fluorophenyl)methyl]-2-oxo-4-quinolyl]oxy]-2,3,3a,5,6,6a-hexahydrofuro[3,2-b]furan-6-yl] 2-chloroacetate], the IC50 in assay [1] and in assay [2] was greater than 100 nM throughout.
Take `N#Cc1c(Nc2ccc(O[C@H]3CO[C@H]4[C@@H]3OC[C@@H]4O)c(Cl)c2)c2ccccc2n(Cc2ccccc2)c1=O` [Example R, 4-[4-[[(3S,3aR,6S,6aR)-3-hydroxy-2,3,3a,5,6,6a-hexahydrofuro[3,2-b]furan-6-yl]oxy]-3-chloro-anilino]-1-benzyl-2-oxo-1,2-dihydroquinoline-3-carbonitrile]: the IC50 in assay [1] and in assay [2] was greater than 100 nM in each case.
`CCOC(=O)c1c(Nc2ccc(O[C@H]3CO[C@H]4[C@@H]3OC[C@@H]4O)c(Cl)c2)c2ccccc2n(Cc2ccccc2)c1=O` [Example S, ethyl 4-[4-[[(3S,3aR,6S,6aR)-3-hydroxy-2,3,3a,5,6,6a-hexahydrofuro[3,2-b]furan-6-yl]oxy]-3-chloro-anilino]-1-benzyl-2-oxo-1,2-dihydroquinoline-3-carboxylate]: the IC50 in assay [1] and in assay [2] was greater than 500 nM throughout.
